Measured values: the NIST ThermoML archive (doi:10.1016/j.jct.2009.01.008)
± gives the expanded uncertainty stated by the source.

How the values were obtained:
[1] = 101 kPa, Liquid, Linear variable-path acoustic interferometer
[2] = refractive index (Na D-line) (dimensionless); conditions: 298.15 K; 101.33 kPa; Liquid
[3] = xn = mol fraction of the nth substance listed; conditions: 101 kPa, Liquid, Linear variable-path acoustic interferometer

CC(C)CC(C)(C)C [2,2,4-trimethylpentane]
[1]
Conditions | speed of sound [m/s]
298.15 K | 1082.8 ± 1.8
308.15 K | 1041.1 ± 1.8
318.15 K | 1000 ± 1.8
328.15 K | 958.4 ± 1.8

Conditions | refractive index
[2] | 1.38905 ± 0.00021

CC(C)CC(C)(C)C [2,2,4-trimethylpentane] + COC(C)(C)C
[3], x2 = 0
Conditions | speed of sound [m/s]
298.15 K | 1082.8 ± 1.8
308.15 K | 1041.1 ± 1.8
318.15 K | 1000 ± 1.8
328.15 K | 958.4 ± 1.8

CC(C)CC(C)(C)C [2,2,4-trimethylpentane] + Cc1ccccc1
speed of sound [m/s], [3]
Conditions | 298.15 K | 308.15 K | 318.15 K | 328.15 K
x2 = 0 | 1082.8 ± 1.8 | 1041.1 ± 1.8 | 1000 ± 1.8 | 958.4 ± 1.8
x2 = 0.07776 | 1092.7 ± 1.8 | 1051.1 ± 1.8 | 1009.9 ± 1.8 | 969.3 ± 1.7
x2 = 0.1405 | 1101.3 ± 1.8 | 1059.7 ± 1.8 | 1018.5 ± 1.7 | 977.9 ± 1.7
x2 = 0.2059 | 1110.8 ± 1.8 | 1069.2 ± 1.7 | 1028.1 ± 1.7 | 987.5 ± 1.7
x2 = 0.2671 | 1120.3 ± 1.8 | 1078.7 ± 1.7 | 1037.6 ± 1.7 | 997 ± 1.7
x2 = 0.3385 | 1132.3 ± 1.7 | 1090.7 ± 1.7 | 1049.5 ± 1.7 | 1008.8 ± 1.7
x2 = 0.3976 | 1143 ± 1.7 | 1101.3 ± 1.7 | 1060.1 ± 1.7 | 1019.4 ± 1.7
x2 = 0.4724 | – | 1115.6 ± 1.7 | 1074.3 ± 1.7 | –
x2 = 0.5328 | 1170 ± 1.7 | – | 1086.9 ± 1.7 | 1046.1 ± 1.7
x2 = 0.5966 | 1184.2 ± 1.7 | 1142.3 ± 1.7 | 1100.9 ± 1.7 | 1060 ± 1.6
x2 = 0.6699 | 1201.9 ± 1.7 | 1159.9 ± 1.7 | 1118.4 ± 1.7 | 1077.5 ± 1.6
x2 = 0.7302 | 1217.5 ± 1.7 | 1175.4 ± 1.7 | – | 1092.8 ± 1.6
x2 = 0.7895 | – | – | 1150.3 ± 1.7 | –
x2 = 0.8001 | 1237.5 ± 1.7 | 1195.3 ± 1.7 | 1153.6 ± 1.7 | 1112.4 ± 1.6
x2 = 0.8681 | 1258.4 ± 1.7 | 1216.1 ± 1.7 | 1174.2 ± 1.7 | 1132.8 ± 1.6
x2 = 0.8691 | 1259 ± 1.7 | – | – | –
x2 = 0.9539 | 1288.1 ± 1.7 | 1245.4 ± 1.7 | 1203.3 ± 1.7 | –

COC(C)(C)C [2-methoxy-2-methylpropane]
[1]
Conditions | speed of sound [m/s]
298.15 K | 1036.4 ± 1.6
308.15 K | 990.8 ± 1.5
318.15 K | 945.3 ± 1.5

Conditions | refractive index
[2] | 1.36648 ± 0.00012
